The target in this assay is T1, protein:farnesyl transferase (Oryctolagus cuniculus, UniProt G1SFC8+G1T7D9).
T1 construct: immobilised CAAX peptide A and 3H-FPP as substrates
Briefly: Inhibition of protein:farnesyl transferase activity in rabbit reticulocyte lysate (pepAsep/pepBsep, 3H-FPP). Type of assay: biochemical. The note with it: read-out: IC50 -value, 80 pmol peptide on Sepharose beads, 0.7 μM 3H-FPP, 30 min, 37° C., pepAsep minus pepBsep dpm. Here is the method:
Commercially available rabbit reticulocyte lysate contains enzymes necessary for protein-isoprenylation, such as protein:farnesyl transferase activity (Vorburger, K., Kitten, G. T. and Nigg, E. G., EMBO J. 8 (1989) 4007-4013) and protein:geranylgeranyl transferase (Maltese, W. A. and Robishaw, J. D., J. Biol. Chem. 265 (1990) 18071-18074). Using pepAsep (example I) as substrate and pepBsep (example I) as control the assay of protein:farnesyl transferase activity was performed as follows: In 25 μl of a mixture containing 5 μl of pepAsep or pepBsep (both containing an equal quantity of peptide), 13 μl rabbit reticulocyte lysate (promega), 0.5 mM MgCl2, 1 mM DTT, 50 mM Tris-HCl (pH 7.4) and [^3 H]-farnesyl pyrophosphate (^3 H-FPP; concentration as indicated in the figures; specific radioactivity 15 Ci/mmol; ARC, USA) the incubation was performed at 37° C. for 30 min with continuous shaking. […] The radioactivity bound to the Sepharose was measured in a Packaged Tricarb liquid scintillation counter. […]
80 pmol of pepAsep and pepBsep/5 μl Sepharose were incubated for 30 minutes in the presence of 0.7 μM of [^3 H]-FPP and the indicated concentrations of the farnesyl pyrophosphate analogues FPPA1 and FPPA2 as mentioned in Example IV. The farnesylation activity was calculated as ^3 H-dpm bound to pepAsep minus the pepBsep-bound-dpm and expressed as percentage of control (without inhibitor).

Broadly, the IC50 is the midpoint of a concentration-inhibition curve.

Regarding `CC(C)=CCCC(C)=CCCC(C)=CCP(=O)(O)OP(=O)(O)O` [FPPA2, farnesyl phosphonophosphate], the IC50 turned out to be 290 ± 20 nM.

These data come from patent US5952473A, “Reagent and kit for determining isoprenylating activity and inhibition thereof” (priority 1993, dated 1999).
